In patent US10800792B2, “Inhibitors of Bruton's tyrosine kinase and method of their use” (JANSSEN PHARMACEUTICA NV, priority 2015, dated 2020):

Biological target: unphosphorylated-BTK kinase domain (UP-BTK), GST-tagged human BTK (389-659aa) (Homo sapiens (Human), UniProt Q06187)
Experiment: BTK kinase Lanthascreen binding assay
Conditions: Lanthascreen tracer competition, 60 minutes incubation, pIC50 = negative log of the IC50 in molar; for IC50: read-out: BTK_I_binding pIC50 (converted)
Outline: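 A fluorescent tracer is bound to unphosphorylated BTK; test compound is added to compete it off; the Lanthascreen signal is read and IC50 is fitted, then reported as its negative log in molar.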

Chain of unphosphorylated-BTK kinase domain (UP-BTK), GST-tagged human BTK (389-659aa) (Q06187 389-659): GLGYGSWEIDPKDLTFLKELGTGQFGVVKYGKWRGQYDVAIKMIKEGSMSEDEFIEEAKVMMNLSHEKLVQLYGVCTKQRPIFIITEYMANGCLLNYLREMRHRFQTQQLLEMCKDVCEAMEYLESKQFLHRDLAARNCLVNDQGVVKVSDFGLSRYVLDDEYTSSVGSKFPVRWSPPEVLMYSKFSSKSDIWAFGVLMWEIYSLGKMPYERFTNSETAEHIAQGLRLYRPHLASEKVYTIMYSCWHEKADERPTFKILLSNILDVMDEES

BTK_I_binding pIC50	IC50	Compound
6.5		C=CC(=O)N1CCC[C@@H](NC(=O)c2sc3nccc4c3c2NC(=O)N4c2cccc(C3CCOCC3)c2)C1 [Example 708, (R)—N-(1-Acryloylpiperidin-3-yl)-4-oxo-5-(3-(tetrahydro-2H-pyran-4-yl)phenyl)-4,5-dihydro-3H-1-thia-3,5,8-triazaacenaphthylene-2-carboxamide]
6.7		C=CC(=O)N1CCC[C@@H](NC(=O)c2sc3nccc4c3c2NC(=O)N4c2ccnc(-c3ccccn3)c2)C1 [Example 709, (R)-5-([2,2′-Bipyridin]-4-yl)-N-(1-acryloylpiperidin-3-yl)-4-oxo-4,5-dihydro-3H-1-thia-3,5,8-triazaacenaphthylene-2-carboxamide]
7.4		CN1CCC[C@@H](NC(=O)c2sc3nccc4c3c2NC(=O)N4c2cccc(-c3cccc(F)c3F)c2)C1 [Example 710, (R)-5-(2′,3′-Difluoro-[1,1′-biphenyl]-3-yl)-N-(1-methylpiperidin-3-yl)-4-oxo-4,5-dihydro-3H-1-thia-3,5,8-triazaacenaphthylene-2-carboxamide]
6.6		Cc1nc(Oc2ccccc2)ccc1N1C(=O)Nc2c(C(=O)N[C@@H]3CCCNC3)sc3nccc1c23 [Example 711, (R)-5-(2-methyl-6-phenoxypyridin-3-yl)-4-oxo-N-(piperidin-3-yl)-4,5-dihydro-3H-1-thia-3,5,8-triazaacenaphthylene-2-carboxamide]
6.5		CNCC(=O)N1CCC[C@@H](NC(=O)c2sc3nccc4c3c2NC(=O)N4c2ccnc(-c3ccccc3)c2)C1 [Example 714, (R)—N-(1-(Methylglycyl)piperidin-3-yl)-4-oxo-5-(2-phenylpyridin-4-yl)-4,5-dihydro-3H-1-thia-3,5,8-triazaacenaphthylene-2-carboxamide]
6.3		C=CC(=O)N1C[C@@H](O)[C@@H](NC(=O)c2sc3nccc4c3c2NC(=O)N4c2ccnc(-c3ccccc3)c2)C1 [Example 718, N-((3S,4R)-1-Acryloyl-4-hydroxypyrrolidin-3-yl)-4-oxo-5-(2-phenylpyridin-4-yl)-4,5-dihydro-3H-1-thia-3,5,8-triazaacenaphthylene-2-carboxamide]
	501 nM	O=C(N[C@@H]1CCCNC1)c1sc2nccc3c2c1NC(=O)N3c1ncc(Oc2ccccc2)cn1 [Example 719, (R)-4-Oxo-5-(5-phenoxypyrimidin-2-yl)-N-(piperidin-3-yl)-4,5-dihydro-3H-1-thia-3,5,8-triazaacenaphthylene-2-carboxamide]
6.2		O=C(N[C@@H]1CCCNC1)c1sc2nccc3c2c1NC(=O)N3c1ccnc(C2CCCC2)c1 [Example 720, (R)-5-(2-Cyclopentylpyridin-4-yl)-4-oxo-N-(piperidin-3-yl)-4,5-dihydro-3H-1-thia-3,5,8-triazaacenaphthylene-2-carboxamide]
6.2		CC(C)Cc1cccc(N2C(=O)Nc3c(C(=O)N[C@@H]4CCCNC4)sc4nccc2c34)c1 [Example 721, (R)-5-(3-Isobutylphenyl)-4-oxo-N-(piperidin-3-yl)-4,5-dihydro-3H-1-thia-3,5,8-triazaacenaphthylene-2-carboxamide]
	794 nM	O=C(N[C@@H]1CCCNC1)c1sc2nccc3c2c1NC(=O)N3c1cc(-c2ccccc2)ncn1 [Example 723, (R)-4-Oxo-5-(6-phenylpyrimidin-4-yl)-N-(piperidin-3-yl)-4,5-dihydro-3H-1-thia-3,5,8-triazaacenaphthylene-2-carboxamide]
6.1		Cc1ccc(-c2ccccc2)cc1N1C(=O)Nc2c(C(=O)N[C@@H]3CCCNC3)sc3nccc1c23 [Example 725, (R)-5-(4-Methyl-[1,1′-biphenyl]-3-yl)-4-oxo-N-(piperidin-3-yl)-4,5-dihydro-3H-1-thia-3,5,8-triazaacenaphthylene-2-carboxamide]
<6		CC(C)c1cc(N2C(=O)Nc3c(C(=O)N[C@@H]4CCCNC4)sc4nccc2c34)ccn1 [Example 727, (R)-5-(2-Isopropylpyridin-4-yl)-4-oxo-N-(piperidin-3-yl)-4,5-dihydro-3H-1-thia-3,5,8-triazaacenaphthylene-2-carboxamide]
